Patent US20160310523A1, “USE OF OXYGEN-CONTAINING GAS SOURCE” (China Medical University, priority 2015, published 2016)

How the values were obtained:
[1] = Inactivity (sedation) of rats during the forced swimming test
Procedure: Prostaglandin and serotonin are previously implicated in stress-mediated blood-brain barrier disruption. To examine whether prostaglandin and serotonin could contribute to opening of the blood-brain barrier, the rats are treated with indomethacin (10 mg/kg, i.p.) and cyproheptadine (15 mg/kg, i.p.) and then performing the forced swimming test, wherein indomethacincan can reduce the synthesis of prostaglandin and cyproheptadine competes with serotonin in that it acts on a postsynaptic receptor.

blood-brain barrier [2] = assay: Forced swim test, EBD extravasation after drug treatment; assay type: in vivo, rats; details: EIPA 5 mg/kg i.p.; zoniporide 20 mg/kg i.p.; FIG. 4C
Text: In a forced swim test, the rats are forced to swim in an opaque tank with limited spatial information, wherein a diameter, a height and a depth of the opaque tank is 43 cm, 54 cm and 29 cm, respectively.
To examine whether the NHE contributes to metabolic blood-brain barrier disruption during stressful activity, we administer either a vehicle (i.p.) or an NHE inhibitor (i.p.) to EBD-treated rats prior to forced swimming and quantify the EBD extravasation into the brain.

blood-brain barrier [3] = assay: Claustrophobia test in gas chamber, EBD extravasation; assay type: in vivo, rats; details: breathing 100% O2 vs normal air, P>0.05, FIG. 6A
Text: FIGS. 6A and 6B show the effects of increased pO2 on the blood-brain barrier permeability. FIG. 6A is a quantitative diagram showing the detection amount of EBD in different districts of the brain of the rats in the claustrophobia test. FIG. 6B is a quantitative diagram showing the detection amount of EBD in the blood of the rats in the claustrophobia test. The rats are placed in gas chambers and allowed to breathe either normal air or 100% O2, and then performing the claustrophobia test.

blood-brain barrier [4] = assay: Hypoventilation respiratory treatment, EBD extravasation; assay type: in vivo, rats; details: hypoventilation (50 BPM) with 100% O2; FIGS. 8A, 8B
Procedure: A regional metabolic acidosis is caused by a local brain activity, but more global […] can also be induced by a hypoventilation. Given that increased blood pO2 substantially potentiates the blood-brain barrier opening by CO2/H^+, we further examine whether increasing pO2 in the rats subjected to the hypoventilation could open the blood-brain barrier in this example. The rats are injected with EBD first, and the rats are grouped and treated with a respiratory treatment by different levels of ventilation. Next, quantifying the EBD extravasation into different districts of the brain of the rats after the respiratory treatment. The respiratory treatment are a physiologically rate, the hypoventilation and a general ventilation, wherein a respiratory rate of the physiologically rate is 90 BPM (breath per minute) by using a tracheotomy, the respiratory rate of the general ventilation is 80 BPM, and the respiratory rate of the hypoventilation is 50 BPM. […]
The data of the respiratory treatment is shown in Table 4 as follows and FIG. 8A-8C. […] FIG. 8B is a quantitative diagram showing the detection amount of EBD in different districts of the brain and the blood of the rats in the hypoventilation. FIG. 8C is a quantitative diagram showing the detection amount of EBD in different districts of the brain and the blood of the rats increased a ventilation rate.

[5] = indomethacin 10 mg/kg i.p., cyproheptadine 15 mg/kg i.p., EIPA 5 mg/kg i.p.

| Compound | sedation at the dose used ([1]; rat, in vivo) | EBD extravasation into the motor cortex during the forced swimming test (blood-brain barrier [2]) | further results |
| --- | --- | --- | --- |
| CN1CCC(=C2c3ccccc3C=Cc3ccccc32)CC1 [cyproheptadine] | marked sedation | – | – |
| CCN(c1nc(N)c(C(=O)NC(=N)N)nc1Cl)C(C)C [EIPA, Ethylisopropyl amiloride] | – | attenuates | number of the rats that remain inactive during the forced swimming test [1, 5]: 0/6; sedation at the dose used [1, 5]: not sedative |
| COc1ccc2c(c1)c(CC(=O)O)c(C)n2C(=O)c1ccc(Cl)cc1 [indomethacin] | marked sedation | – | – |
| O=O [100% O2] | – | – | increase in blood-brain barrier permeability (EBD extravasation in motor cortex, caudate/putamen, hippocampus) (blood-brain barrier [3]): not significant; blood-brain barrier opening (blood-brain barrier [4]): opens the blood-brain barrier |
| N=C(N)NC(=O)c1cnn(-c2cccc3ncccc23)c1C1CC1 [zoniporide] | – | attenuates | – |
